From patent US20240109917A1 (ACTELION PHARMACEUTICALS LTD, priority 2020, published 2024)
Read-outs that look alike come from different tables or passages of the source.

Tests used:
[1] = biological target: Tb-labeled inactive PDGFRβ (Homo sapiens (Human), UniProt P09619); test: PDGFRβ LanthaScreen Assay; format: binding; conditions: read-out: PDGFR Lantha IC50
[2] = biological target: His6-TEV-PDGFRβ (557-1016) (Homo sapiens (Human), UniProt P09619); test: PDGFRβ HTRF Assay; format: biochemical; conditions: read-out: PDGFR HTRF IC50
Sequence of His6-TEV-PDGFRβ (557-1016) (P09619 557-1016): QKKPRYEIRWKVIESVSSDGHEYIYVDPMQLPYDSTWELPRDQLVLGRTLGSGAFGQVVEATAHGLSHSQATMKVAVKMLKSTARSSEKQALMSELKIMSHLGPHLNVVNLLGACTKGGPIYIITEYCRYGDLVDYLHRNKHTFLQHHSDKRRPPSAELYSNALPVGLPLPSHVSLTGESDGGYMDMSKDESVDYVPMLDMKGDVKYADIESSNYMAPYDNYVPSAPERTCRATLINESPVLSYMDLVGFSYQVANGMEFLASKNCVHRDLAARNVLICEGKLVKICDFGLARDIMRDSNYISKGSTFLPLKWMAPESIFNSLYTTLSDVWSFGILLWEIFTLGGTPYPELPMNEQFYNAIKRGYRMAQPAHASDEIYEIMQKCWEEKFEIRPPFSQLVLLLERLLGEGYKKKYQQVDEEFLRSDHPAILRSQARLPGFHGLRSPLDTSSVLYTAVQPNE
Outline: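 Human PDGFRβ (557-1016) pre-incubated with compound for 30 min at RT in pH 7.5 HEPES/MgCl2/EGTA/Brij-35/DTT buffer. Reaction started with ATP and TK-biotin peptide, run 3 h at RT, then quenched with EDTA-containing Eu-cryptate antibody/streptavidin-XL665. HTRF 665/620 nm ratio read after 60 min; percent inhibition relative to DMSO and 10 μM imatinib controls.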

[3] = biological target: PDGFRβ (Rattus norvegicus (Rat), UniProt Q05030); test: PDGFRβ Cellular Assay (PDGFRb P-Y751 HTRF in A10 cells stimulated with PDGF-BB); format: cell-based
Sequence of PDGFRβ (Q05030 32-1097): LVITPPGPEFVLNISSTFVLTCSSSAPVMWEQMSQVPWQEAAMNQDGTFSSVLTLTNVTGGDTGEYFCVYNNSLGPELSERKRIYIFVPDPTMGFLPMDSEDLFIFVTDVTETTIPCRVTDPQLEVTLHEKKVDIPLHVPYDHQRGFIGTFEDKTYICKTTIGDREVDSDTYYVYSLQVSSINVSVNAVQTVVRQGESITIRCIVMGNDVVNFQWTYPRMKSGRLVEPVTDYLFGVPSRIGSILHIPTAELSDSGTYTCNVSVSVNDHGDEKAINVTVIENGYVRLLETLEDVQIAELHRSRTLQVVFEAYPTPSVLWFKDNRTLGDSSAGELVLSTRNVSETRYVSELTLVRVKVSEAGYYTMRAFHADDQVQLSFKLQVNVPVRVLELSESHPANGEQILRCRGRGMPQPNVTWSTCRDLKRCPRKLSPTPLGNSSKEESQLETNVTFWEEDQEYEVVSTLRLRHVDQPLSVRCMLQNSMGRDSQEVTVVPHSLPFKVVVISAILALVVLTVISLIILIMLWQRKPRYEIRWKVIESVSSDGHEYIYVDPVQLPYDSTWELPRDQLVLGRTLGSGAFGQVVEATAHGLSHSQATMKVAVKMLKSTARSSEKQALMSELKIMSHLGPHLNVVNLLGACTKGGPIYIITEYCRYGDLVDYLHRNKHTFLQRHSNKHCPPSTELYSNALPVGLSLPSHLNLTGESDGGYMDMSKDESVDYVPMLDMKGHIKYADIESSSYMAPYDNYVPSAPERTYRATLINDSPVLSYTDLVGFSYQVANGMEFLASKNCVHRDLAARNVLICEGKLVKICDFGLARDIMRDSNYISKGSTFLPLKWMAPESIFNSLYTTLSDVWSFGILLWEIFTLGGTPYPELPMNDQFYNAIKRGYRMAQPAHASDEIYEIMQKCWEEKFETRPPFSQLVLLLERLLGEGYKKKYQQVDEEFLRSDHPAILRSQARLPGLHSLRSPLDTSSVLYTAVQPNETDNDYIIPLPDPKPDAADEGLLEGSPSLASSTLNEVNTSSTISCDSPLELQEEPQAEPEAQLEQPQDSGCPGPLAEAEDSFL
Outline: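 Rat A10 cells, plated overnight, were treated with compound for 3 hours, then stimulated with PDGF-BB (working stock 100 ng/mL in 10% FBS medium). After lysis, PDGFRβ P-Y751 was detected by HTRF.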

Sequence of Tb-labeled inactive PDGFRβ (P09619 33-1106): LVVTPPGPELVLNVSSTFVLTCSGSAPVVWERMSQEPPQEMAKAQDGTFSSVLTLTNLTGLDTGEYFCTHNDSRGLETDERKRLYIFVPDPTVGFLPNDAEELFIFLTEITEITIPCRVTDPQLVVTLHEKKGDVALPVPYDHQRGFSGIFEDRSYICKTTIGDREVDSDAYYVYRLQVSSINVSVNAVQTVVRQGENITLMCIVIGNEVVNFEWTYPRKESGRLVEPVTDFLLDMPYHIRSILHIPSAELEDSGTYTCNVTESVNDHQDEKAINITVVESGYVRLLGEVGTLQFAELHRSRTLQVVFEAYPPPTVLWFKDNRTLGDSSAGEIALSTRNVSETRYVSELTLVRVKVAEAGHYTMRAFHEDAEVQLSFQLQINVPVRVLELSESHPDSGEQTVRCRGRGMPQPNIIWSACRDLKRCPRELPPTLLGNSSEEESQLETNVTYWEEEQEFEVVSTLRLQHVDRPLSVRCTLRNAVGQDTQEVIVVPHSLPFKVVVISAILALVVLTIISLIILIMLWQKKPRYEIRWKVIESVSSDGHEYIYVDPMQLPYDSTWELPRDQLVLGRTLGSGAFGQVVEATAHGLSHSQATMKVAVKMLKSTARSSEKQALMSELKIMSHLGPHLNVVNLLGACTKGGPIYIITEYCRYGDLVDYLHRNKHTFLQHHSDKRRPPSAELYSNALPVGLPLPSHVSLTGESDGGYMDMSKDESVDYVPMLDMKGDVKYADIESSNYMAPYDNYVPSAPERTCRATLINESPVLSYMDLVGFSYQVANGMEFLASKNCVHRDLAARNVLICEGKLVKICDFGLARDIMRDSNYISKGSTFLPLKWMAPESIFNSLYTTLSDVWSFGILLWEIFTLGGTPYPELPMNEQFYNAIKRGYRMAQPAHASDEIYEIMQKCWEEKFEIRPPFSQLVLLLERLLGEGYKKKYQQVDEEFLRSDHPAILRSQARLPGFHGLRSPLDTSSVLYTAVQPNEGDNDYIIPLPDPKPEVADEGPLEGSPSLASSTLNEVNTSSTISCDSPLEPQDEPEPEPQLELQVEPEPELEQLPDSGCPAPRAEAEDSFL

Structure (SMILES)	IC50 [1]	IC50 [2]	IC50 ([3]; read-out: PDGFR Cellular IC50)	IC50 ([3]; PDGFR Cellular IC50)
Cc1ncc(NC(=O)CN2C[C@H](C)O[C@@H](C)C2)cc1NC(=O)c1cnn2cc(-c3cnc(N)c(F)c3)sc12 (relative stereo) [Example 372, 2-(6-amino-5-fluoropyridin-3-yl)-N-(5-(2-(trans-2,6-dimethylmorpholino)acetamido)-2-methylpyridin-3-yl)pyrazolo[5,1-b]thiazole-7-carboxamide]	7.7 nM	0.6 nM	21.2 nM	–
COc1ncccc1-c1cn2ncc(C(=O)Nc3cc(NC(=O)CN4C[C@@H](CO)OC(C)(C)C4)cnc3C)c2s1 [Example 380, (S)—N-(5-(2-(6-(hydroxymethyl)-2,2-dimethylmorpholino)acetamido)-2-methylpyridin-3-yl)-2-(2-methoxypyridin-3-yl)pyrazolo[5,1-b]thiazole-7-carboxamide]	3 nM	0.4 nM	9.8 nM	–
Cc1ncc(NC(=O)C2CCN(C(C)C)C2)cc1NC(=O)c1cnn2cc(-c3cnn4c3OCCC4)sc12 (stereo not drawn) [Example 350, 2-(6,7-dihydro-5H-pyrazolo[5,1-b][1,3]oxazin-3-yl)-N-(5-(1-isopropylpyrrolidine-3-carboxamido)-2-methylpyridin-3-yl)pyrazolo[5,1-b]thiazole-7-carboxamide]	4.1 nM	0.3 nM	73.3 nM	–
COCCn1cc(-c2cn3ncc(C(=O)Nc4cc(NC(=O)CN5CCCC6(CC6)C5)cnc4C)c3s2)cn1 [Example 335, N-(5-(2-(5-azaspiro[2.5]octan-5-yl)acetamido)-2-methylpyridin-3-yl)-2-(1-(2-methoxyethyl)-1H-pyrazol-4-yl)pyrazolo[5,1-b]thiazole-7-carboxamide]	3 nM	0.4 nM	3.5 nM	–
COc1ncccc1-c1cn2ncc(C(=O)Nc3cc(C(=O)NCCN4CC(C)(C)C4)cnc3C)c2s1 [Example 387, N-(5-((2-(3,3-dimethylazetidin-1-yl)ethyl)carbamoyl)-2-methylpyridin-3-yl)-2-(2-methoxypyridin-3-yl)pyrazolo[5,1-b]thiazole-7-carboxamide]	1.5 nM	0.2 nM	6.9 nM	–
Cc1ncc(NC(=O)C2CCN(C(C)C)C2)cc1NC(=O)c1cnn2cc(-c3cn(C)nc3C)sc12 (stereo not drawn) [Example 355, 2-(1,3-dimethyl-1H-pyrazol-4-yl)-N-(5-(1-isopropylpyrrolidine-3-carboxamido)-2-methylpyridin-3-yl)pyrazolo[5,1-b]thiazole-7-carboxamide]	11.3 nM	0.4 nM	50.3 nM	–
Cc1ncc(NC(=O)C[C@H]2CCCN2C(C)C)cc1NC(=O)c1cnn2cc(-c3cnn4c3OCCC4)sc12 [Example 351, (R)-2-(6,7-dihydro-5H-pyrazolo[5,1-b][1,3]oxazin-3-yl)-N-(5-(2-(1-isopropylpyrrolidin-2-yl)acetamido)-2-methylpyridin-3-yl)pyrazolo[5,1-b]thiazole-7-carboxamide]	3.1 nM	0.3 nM	–	17.7 nM
COc1ncccc1-c1cn2ncc(C(=O)Nc3cc(NC(=O)CN4CC(C)C4)cnc3C)c2s1 [Example 405, 2-(2-methoxypyridin-3-yl)-N-(2-methyl-5-(2-(3-methylazetidin-1-yl)acetamido)pyridin-3-yl)pyrazolo[5,1-b]thiazole-7-carboxamide]	3.9 nM	0.2 nM	3.8 nM	–
Cc1ncc(NS(=O)(=O)CCN2CC3CCC2CC3)cc1NC(=O)c1cnn2cc(-c3cnn(C)c3)sc12 [Example 358, N-(5-((2-(2-azabicyclo[2.2.2]octan-2-yl)ethyl)sulfonamido)-2-methylpyridin-3-yl)-2-(1-methyl-1H-pyrazol-4-yl)pyrazolo[5,1-b]thiazole-7-carboxamide]	1840 nM	86.6 nM	941 nM	–
Cc1ncc(NC(=O)CN2C[C@@H](CO)O[C@@H](C)C2)cc1NC(=O)c1cnn2cc(-c3cnn(C)c3)sc12 (relative stereo) [Example 378, N-(5-(2-(cis-2-(hydroxymethyl)-6-methylmorpholino)acetamido)-2-methylpyridin-3-yl)-2-(1-methyl-1H-pyrazol-4-yl)pyrazolo[5,1-b]thiazole-7-carboxamide]	10.2 nM	0.8 nM	304 nM	–
COc1ncccc1-c1cn2ncc(C(=O)Nc3cc(NC(=O)CN4CCC4)cnc3C)c2s1 [Example 397, N-(5-(2-(azetidin-1-yl)acetamido)-2-methylpyridin-3-yl)-2-(2-methoxypyridin-3-yl)pyrazolo[5,1-b]thiazole-7-carboxamide]	22.1 nM	0.8 nM	–	7.6 nM
Cc1ncc(S(=O)(=O)NCCN2CCCC2(C)C)cc1NC(=O)c1cnn2cc(-c3cnn(C)c3)sc12 [Example 359, N-(5-(N-(2-(2,2-dimethylpyrrolidin-1-yl)ethyl)sulfamoyl)-2-methylpyridin-3-yl)-2-(1-methyl-1H-pyrazol-4-yl)pyrazolo[5,1-b]thiazole-7-carboxamide]	451 nM	16.4 nM	365 nM	–
COCCn1cc(-c2cn3ncc(C(=O)Nc4cc(NC(=O)CN5CCCCCC5)cnc4C)c3s2)cn1 [Example 339, N-(5-(2-(azepan-1-yl)acetamido)-2-methylpyridin-3-yl)-2-(1-(2-methoxyethyl)-1H-pyrazol-4-yl)pyrazolo[5,1-b]thiazole-7-carboxamide]	3 nM	0.4 nM	2.6 nM	–
COc1ncccc1-c1cn2ncc(C(=O)Nc3cc(NC(=O)CN4CC5(COC5)C4)cnc3C)c2s1 [Example 404, N-(5-(2-(2-oxa-6-azaspiro[3.3]heptan-6-yl)acetamido)-2-methylpyridin-3-yl)-2-(2-methoxypyridin-3-yl)pyrazolo[5,1-b]thiazole-7-carboxamide]	4.9 nM	0.3 nM	7.2 nM	–
Cc1ncc(NC(=O)CN2CC3CCC(C2)O3)cc1NC(=O)c1cnn2cc(-c3cc[nH]c3)sc12 [Example 366, N-(5-(2-(8-oxa-3-azabicyclo[3.2.1]octan-3-yl)acetamido)-2-methylpyridin-3-yl)-2-(1H-pyrrol-3-yl)pyrazolo[5,1-b]thiazole-7-carboxamide]	2.5 nM	0.3 nM	7.7 nM	–
Cc1ncc(NC(=O)CN2CCC3(CC3)C2)cc1NC(=O)c1cnn2cc(-c3cnn(CCO)c3)sc12 [Example 32, N-(5-(2-(5-azaspiro[2.4]heptan-5-yl)acetamido)-2-methylpyridin-3-yl)-2-(1-(2-hydroxyethyl)-1H-pyrazol-4-yl)pyrazolo[5,1-b]thiazole-7-carboxamide]	5.5 nM	0.7 nM	20.5 nM	–
COc1ccc(-c2cn3ncc(C(=O)Nc4cc(NC(=O)CN5CC(C)(C)C5)cnc4C)c3s2)cn1 [Example 395, N-(5-(2-(3,3-dimethylazetidin-1-yl)acetamido)-2-methylpyridin-3-yl)-2-(6-methoxypyridin-3-yl)pyrazolo[5,1-b]thiazole-7-carboxamide]	7.3 nM	0.4 nM	6.2 nM	–
Cc1ncc(NC(=O)CN2C[C@H](C)O[C@@H](C)C2)cc1NC(=O)c1cnn2cc(-c3c[nH]nc3C)sc12 (relative stereo) [Example 371, N-(5-(2-(trans-2,6-dimethylmorpholino)acetamido)-2-methylpyridin-3-yl)-2-(3-methyl-1H-pyrazol-4-yl)pyrazolo[5,1-b]thiazole-7-carboxamide]	3 nM	0.4 nM	29.3 nM	–
